In US20150208645A1, “PHYTOSANITARY COMPOSITIONS COMPRISING AN ETHER-AMIDE COMPOUND” (priority 2012, published 2015):

Columns and labels:
Assay type in all cases: physicochemical
[1] = Visual observation at 25° C. of EC formulation (aspect, presence of crystals); settings: 10% Alkamuls RC, remainder the solvent
Procedure: By mixing the ingredients, formulations of various phytosanitary active ingredients of the type emulsifiable concentrate type (EC) are prepared. […] The following tests are conducted: Visual observation at 25° C.—The aspect of the formulation is noted and the presence of crystals is optionally located

[2] = Visual observation at 0° C. after 7 days (test CIPAC MT39); settings: 10% Alkamuls RC, remainder the solvent, 7 days at 0° C.
Procedure: By mixing the ingredients, formulations of various phytosanitary active ingredients of the type emulsifiable concentrate type (EC) are prepared. […] The following tests are conducted: Visual observation at 0° C.—The formulation is placed for 7 days at 0° C. and the aspect of the formulation is noted and the presence of crystals is optionally located (test CIPAC MT39)

[3] = Visual observation at 0° C. with nucleation (crystal of active material introduced, again 7 days at 0° C.); settings: 10% Alkamuls RC, remainder the solvent, seeded with crystal, further 7 days at 0° C.
Procedure: By mixing the ingredients, formulations of various phytosanitary active ingredients of the type emulsifiable concentrate type (EC) are prepared. The formulations comprise: […]
10% by weight of the surfactant Alkamuls® RC, marketed by Rhodia
and, as a solvent, the remainder of the compound of the examples.
The following tests are conducted:
Visual observation at 0° C. with nucleation: A crystal of active material is introduced into the formulation having spent 7 days at 0° C. formulation, and the formulation is again placed for 7 days at 0° C. The aspect of the formulation is noted and the presence of crystals is optionally located.

[4] = EC formulation: Azoxystrobin 25% by weight
[5] = EC formulation: Difenconazole 25% by weight
[6] = EC formulation: Dimethoate 40% by weight
[7] = EC formulation: Oxyfluorfen 22% by weight
[8] = EC formulation: Phenmedipham 16% by weight
[9] = EC formulation: Propanil 36% by weight
[10] = EC formulation: Propoxur 20% by weight
[11] = EC formulation: Tebuconazole 25% by weight
[12] = EC formulation: Trifluralin 40% by weight

Question: For `CCOCCCC(=O)N(C)C` [Compound 4], which “Aspect at 25° C.” value [1, 4] is on record?
Answer: Crystals

Question: And the “Aspect at 25° C.” value [1, 5]?
Answer: Limpid

Question: And the “Aspect at 25° C.” value [1, 6]?
Answer: Limpid

Question: And the “Aspect at 25° C.” value [1, 7]?
Answer: Cloudy

Question: And the “Aspect at 25° C.” value [1, 8]?
Answer: Limpid

Question: What about the “Aspect at 25° C.” value [1, 9] of the same molecule?
Answer: Limpid

Question: And the “Aspect at 25° C.” value [1, 10]?
Answer: Limpid

Question: And the “Aspect at 25° C.” value [1, 11]?
Answer: Limpid

Question: What about the “Aspect at 25° C.” value [1, 12] of the same molecule?
Answer: Limpid

Question: And the “Aspect at 0° C.” value [2, 4]?
Answer: Crystals

Question: What about the “Aspect at 0° C.” value [2, 5] of the same molecule?
Answer: Limpid

Question: What about the “Aspect at 0° C.” value [2, 6] of the same molecule?
Answer: Limpid

Question: And the “Aspect at 0° C.” value [2, 7]?
Answer: Cloudy

Question: What about the “Aspect at 0° C.” value [2, 8] of the same molecule?
Answer: Limpid

Question: And the “Aspect at 0° C.” value [2, 9]?
Answer: Limpid

Question: And the “Aspect at 0° C.” value [2, 10]?
Answer: Limpid

Question: What about the “Aspect at 0° C.” value [2, 11] of the same molecule?
Answer: Limpid

Question: And the “Aspect at 0° C.” value [2, 12]?
Answer: Limpid

Question: What about the “Aspect at 0° C. with nucleation” value [3, 4] of the same molecule?
Answer: Crystals

Question: And the “Aspect at 0° C. with nucleation” value [3, 5]?
Answer: Limpid

Question: And the “Aspect at 0° C. with nucleation” value [3, 6]?
Answer: Limpid

Question: And the “Aspect at 0° C. with nucleation” value [3, 7]?
Answer: Cloudy

Question: And the “Aspect at 0° C. with nucleation” value [3, 8]?
Answer: Limpid

Question: What about the “Aspect at 0° C. with nucleation” value [3, 9] of the same molecule?
Answer: Limpid

Question: What about the “Aspect at 0° C. with nucleation” value [3, 10] of the same molecule?
Answer: Limpid

Question: What about the “Aspect at 0° C. with nucleation” value [3, 11] of the same molecule?
Answer: Limpid

Question: What about the “Aspect at 0° C. with nucleation” value [3, 12] of the same molecule?
Answer: Crystals
